Source: ChEMBL document CHEMBL4118098, “Discovery of DS28120313 as a potent orally active hepcidin production inhibitor: Design and optimization of novel 4,6-disubstituted indazole derivatives” (Bioorg Med Chem Lett, 2017)

Tests used:
[1] = biological target: Macrophage-stimulating protein receptor (Homo sapiens) (UniProt Q04912); assay: Inhibition of MST1R (unknown origin) at 0.45 uM relative to control
[2] = biological target: Tyrosine-protein kinase Lyn (Homo sapiens) (UniProt P07948); assay: Inhibition of LYNB (unknown origin) at 0.19 uM relative to control
[3] = biological target: Tyrosine-protein kinase receptor TYRO3 (Homo sapiens) (UniProt Q06418); assay: Inhibition of TYRO3 (unknown origin) at 0.19 uM relative to control
[4] = biological target: Protein kinase C theta type (Homo sapiens) (UniProt Q04759); assay: Inhibition of PKC-theta (unknown origin) at 0.19 uM relative to control
[5] = biological target: Maternal embryonic leucine zipper kinase (Homo sapiens) (UniProt Q14680); assay: Inhibition of MELK (unknown origin) at 0.19 uM relative to control
[6] = biological target: Rho-associated protein kinase 2 (Homo sapiens) (UniProt O75116); assay: Inhibition of ROCK2 (unknown origin) at 0.19 uM relative to control
[7] = biological target: Hepatocyte growth factor receptor (Homo sapiens) (UniProt P08581); assay: Inhibition of MET (unknown origin) at 0.19 uM relative to control
[8] = biological target: Tyrosine-protein kinase receptor TYRO3 (Homo sapiens) (UniProt Q06418); assay: Inhibition of TYRO3 (unknown origin) at 0.164 uM relative to control
[9] = biological target: Homeodomain-interacting protein kinase 3 (Homo sapiens) (UniProt Q9H422); assay: Inhibition of HIPK3 (unknown origin) at 0.164 uM relative to control
[10] = Tmax in C57BL/6J mouse at 30 mg/kg, po by LC-MS/MS analysis; assay type: ADME, organism-based; conditions: in vivo
[11] = biological target: Ephrin type-A receptor 8 (Homo sapiens) (UniProt P29322); assay: Inhibition of EPHA8 (unknown origin) at 0.164 uM relative to control
[12] = biological target: Fibroblast growth factor receptor 2 (Homo sapiens) (UniProt P21802); assay: Inhibition of FGFR2 (unknown origin) at 0.164 uM relative to control
[13] = biological target: Serine/threonine-protein kinase PAK 4 (Homo sapiens) (UniProt O96013); assay: Inhibition of PAK4 (unknown origin) at 0.164 uM relative to control
[14] = test system: Proto-oncogene tyrosine-protein kinase receptor Ret (Homo sapiens), P07949 [M918T]; assay: Inhibition of RET M918T mutant (unknown origin) at 0.164 uM relative to control
[15] = biological target: CDK6/cyclin D3 (Homo sapiens) (UniProt P30281+Q00534); assay: Inhibition of CDK6/CyclinD3 (unknown origin) at 0.164 uM relative to control; assay type: protein-complex assay
[16] = biological target: Cyclin-dependent kinase 2 (Homo sapiens) (UniProt P24941); assay: Inhibition of CDK2 (unknown origin) at 0.164 uM relative to control
[17] = biological target: Cyclin-dependent kinase 9 (Homo sapiens) (UniProt P50750); assay: Inhibition of CDK9 (unknown origin) at 0.164 uM relative to control
[18] = biological target: Tyrosine-protein kinase Tec (Homo sapiens) (UniProt P42680); assay: Inhibition of TEC (unknown origin) at 0.164 uM relative to control
[19] = biological target: NT-3 growth factor receptor (Homo sapiens) (UniProt Q16288); assay: Inhibition of TRKC (unknown origin) at 0.164 uM relative to control
[20] = biological target: Tyrosine-protein kinase Mer (Homo sapiens) (UniProt Q12866); assay: Inhibition of Mer (unknown origin) at 0.164 uM relative to control
[21] = biological target: Platelet-derived growth factor receptor beta (Homo sapiens) (UniProt P09619); assay: Inhibition of PDGFR beta (unknown origin) at 0.164 uM relative to control
[22] = test system: Tyrosine-protein kinase ABL1 (Homo sapiens), P00519 [Q252H]; assay: Inhibition of Abl Q252H mutant (unknown origin) at 0.164 uM relative to control
[23] = biological target: T1, Serine/threonine-protein kinase DCLK1 (Homo sapiens) (UniProt O15075); assay: Inhibition of DCAMKL1 (unknown origin) at 0.164 uM relative to control
T1 sequence (whole entry): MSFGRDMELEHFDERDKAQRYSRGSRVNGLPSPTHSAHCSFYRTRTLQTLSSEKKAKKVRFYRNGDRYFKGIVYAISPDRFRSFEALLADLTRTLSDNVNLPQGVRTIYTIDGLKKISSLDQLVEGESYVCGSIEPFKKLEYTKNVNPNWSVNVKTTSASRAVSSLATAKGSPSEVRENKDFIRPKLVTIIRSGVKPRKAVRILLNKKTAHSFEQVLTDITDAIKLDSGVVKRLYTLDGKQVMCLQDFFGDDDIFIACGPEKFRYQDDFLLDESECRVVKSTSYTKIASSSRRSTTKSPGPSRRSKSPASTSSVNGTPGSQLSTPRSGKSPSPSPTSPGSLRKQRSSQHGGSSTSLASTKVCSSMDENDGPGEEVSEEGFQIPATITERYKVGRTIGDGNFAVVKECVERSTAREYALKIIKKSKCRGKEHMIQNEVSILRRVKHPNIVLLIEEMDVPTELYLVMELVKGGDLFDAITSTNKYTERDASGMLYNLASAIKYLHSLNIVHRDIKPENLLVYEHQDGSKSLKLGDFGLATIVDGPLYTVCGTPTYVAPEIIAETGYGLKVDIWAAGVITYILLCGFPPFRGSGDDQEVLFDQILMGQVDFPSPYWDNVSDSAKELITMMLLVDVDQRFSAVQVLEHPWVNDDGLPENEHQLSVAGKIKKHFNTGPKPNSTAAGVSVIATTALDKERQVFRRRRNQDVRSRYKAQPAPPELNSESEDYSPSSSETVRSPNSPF

[24] = biological target: Discoidin domain-containing receptor 2 (Homo sapiens) (UniProt Q16832); assay: Inhibition of DDR2 (unknown origin) at 0.164 uM relative to control
[25] = test system: Fibroblast growth factor receptor 4 (Homo sapiens), P22455 [V550L]; assay: Inhibition of FGFR4 V550L mutant (unknown origin) at 0.164 uM relative to control
[26] = biological target: STE20-like serine/threonine-protein kinase (Homo sapiens) (UniProt Q9H2G2); assay: Inhibition of SLK (unknown origin) at 0.164 uM relative to control
[27] = biological target: Fibroblast growth factor receptor 4 (Homo sapiens) (UniProt P22455); assay: Inhibition of FGFR4 (unknown origin) at 0.164 uM relative to control
[28] = biological target: Serine/threonine-protein kinase Sgk3 (Homo sapiens) (UniProt Q96BR1); assay: Inhibition of SGK3 (unknown origin) at 0.164 uM relative to control
[29] = biological target: Tyrosine-protein kinase Blk (Homo sapiens) (UniProt P51451); assay: Inhibition of BLK (unknown origin) at 0.164 uM relative to control
[30] = biological target: Protein kinase C beta type (Homo sapiens) (UniProt P05771); assay: Inhibition of PKC-beta2 (unknown origin) at 0.164 uM relative to control

Cc1n[nH]c(C)c1-c1ccc2c(NC(=O)c3ccc(N4CCN(C)CC4)cc3)n[nH]c2c1
inhibition [1]: -1%

Cc1[nH]nc(C2CC2)c1-c1ccc2c(-c3ccc(N4CCN(C)CC4)nc3)n[nH]c2c1
inhibition [2]: 10.7% | inhibition [3]: 10% | inhibition [4]: 1.7% | inhibition [5]: 51% | inhibition [6]: -1% | inhibition [7]: 7.3%

COC(=O)Nc1cc(-c2c(C3CC3)n[nH]c2C)cc2[nH]ncc12
inhibition [8]: 7.7% | inhibition [9]: 1% | Tmax [10]: 40.2 min | inhibition [11]: -1.7% | inhibition [12]: -5.3% | inhibition [13]: 5.7% | inhibition [14]: 6.7% | inhibition [15]: 2.7% | inhibition [16]: 9% | inhibition [17]: 0% | inhibition [18]: -4.3% | inhibition [19]: 7.3% | inhibition [20]: 6% | inhibition [21]: 21% | inhibition [22]: 0.3% | inhibition [23]: -4.7% | inhibition [24]: 1.7% | inhibition [25]: 1.7% | inhibition [26]: 4.7% | inhibition [27]: 1.3% | inhibition [28]: 3% | inhibition [29]: 6.7% | inhibition [30]: 5.7%
